Measurements taken from US11484539B2, “Compounds and their uses for alleviating menopause-associated symptoms” (Estetra SPRL, priority 2018, dated 2022).

Test system: post-menopausal women
Assay: Weekly frequency of moderate to severe VMS, dose-finding study
Assay type: in vivo
Details: for Difference with placebo, LS adjusted mean, absolute change in weekly frequency of moderate to severe VMS / Difference with placebo, LS adjusted mean, relative change in weekly frequency of moderate to severe VMS: 5 mg E4 vs placebo; for LS adjusted mean change from baseline in weekly frequency of moderate to severe VMS / LS adjusted mean relative change (%) from baseline in weekly frequency of moderate to severe VMS: 10 mg E4
Source text: To determine the Minimum Effective Dose (MED), firstly the selection criteria required that patients presented at least 7 moderate to severe VMS/day or at least 50 moderate to severe VMS/week in the week preceding randomization. Secondly, a placebo group was included in a double-blind fashion. Thirdly, the total patient number was such that statistical significance could be obtained between separate arms of the study. Fourthly, the absolute change from baseline in weekly frequency of moderate to severe VMS was taken into account. An analysis of covariance (ANCOVA) was performed based on the untransformed change in weekly frequency of moderate to severe VMS from baseline. Finally, the change in severity from baseline was evaluated. For this, the Severity Scoring System of VMS was documented by the subjects as follows: • a score of Mild (1) for a sensation of heat without sweating; • a score of Moderate (2) for a sensation of heat with sweating/the subject is able to continue activity; and • a score of Severe (3) for a sensation of heat with sweating/which causes cessation of activity.
Enrolment was approximately 18 months. Individual subject participation was up to 27 weeks: up to 6 weeks pre-screening and washout, up to 4 weeks screening and run-in period, up to 91 days (13 weeks) of E4/placebo treatment followed by 2 weeks (14 days) of progestin therapy and a Follow up visit 1 week after completion of progestin therapy in non-hysterectomised subjects only.
To define the minimum effective dose (MED) of the oral dose of E4 by evaluating changes in frequency and in severity of moderate to severe vasomotor symptoms (VMS).
This was a prospective, multicentre, randomised, placebo-controlled, double-blinded, dose-finding study.
Eligible subjects were hysterectomised and non-hysterectomised post-menopausal women aged 40 to 65 years, inclusive, presenting at least 7 moderate to severe hot flushes/day or at least 50 moderate to severe hot flushes/week.
The subjects have met all of the following inclusion criteria at the randomization visit. These criteria were assessed during the screening period: • 1. Women aged 40 to 65 years, inclusive, presenting at least 7 moderate to severe hot flushes/day or at least 50 moderate to severe hot flushes/week in the week preceding randomization. • 2. Body Mass Index (BMI) between 18.0 and 35.0 kg/m^2, inclusive. • 3. Post-menopausal status defined as levels of follicle stimulating hormone (FSH) >40 IU/L and: • amenorrhoea for at least 12 consecutive months or, • amenorrhoea for at least 6 months with estradiol (E2)<20 pg/mL or, • at least 6 weeks post-surgical bilateral oophorectomy with or without hysterectomy with a copy of the pathology report or a statement on letterhead from the subject's physician documenting both ovaries were removed is required. • 4. For non-hysterectomised women: intact uterus with bi-layer endometrial thickness […] on TVUS. • 5. Negative pregnancy test. • 6. Good physical and mental health, in the judgement of the Principal Investigator (PI), on the basis of medical, surgical and gynaecological history, physical examination, gynaecological examination, clinical laboratory, and vital signs. • 7. Subject has provided signed and dated written informed consent before admission to the study. • 8. Subject is able to understand and comply with the protocol requirements, instructions, and protocol-stated restrictions. Exclusion Criteria:
All treatments (Estetrol, hereinafter, E4, [2.5 mg, 5 mg, 10 mg, 15 mg] capsule) were administered once daily (QD) per os for at least 12 consecutive weeks until the last biological assessments (Day 91 maximum) had been performed.
In order to analyse the data recorded in this study, treatment groups have been compared using an ANCOVA (analysis of covariance) with respect to the change in weekly frequency of moderate to severe VMS from baseline to weeks 4 and 12. […]

[1] = week 4, ANCOVA with study centre
[2] = week 12, ANCOVA with study centre

Compound: C[C@]12CC[C@@H]3c4ccc(O)cc4CC[C@H]3[C@@H]1[C@@H](O)[C@@H](O)[C@@H]2O [E4, 1,3,5 (10)-estratrien-3,15alpha,16alpha,17beta-tetrol]
- Relative change (% from baseline) in weekly frequency of moderate to severe VMS, mean (5 mg E4 QD per os, week 2): −33%
- Mean change from baseline in weekly frequency of moderate to severe VMS (5 mg E4 QD per os, week 3): −24.38
- Relative change (% from baseline) in weekly frequency of moderate to severe VMS, mean (5 mg E4 QD per os, week 3): −38%
- Mean change from baseline in weekly frequency of moderate to severe VMS (5 mg E4 QD per os, week 4): −27.57
- Relative change (% from baseline) in weekly frequency of moderate to severe VMS, mean (5 mg E4 QD per os, week 4): −43%
- Mean change from baseline in weekly frequency of moderate to severe VMS (5 mg E4 QD per os, week 5): −30.70
- Relative change (% from baseline) in weekly frequency of moderate to severe VMS, mean (5 mg E4 QD per os, week 5): −47%
- Mean change from baseline in weekly frequency of moderate to severe VMS (5 mg E4 QD per os, week 6): −38.02
- Relative change (% from baseline) in weekly frequency of moderate to severe VMS, mean (5 mg E4 QD per os, week 6): −57%
- Mean change from baseline in weekly frequency of moderate to severe VMS (5 mg E4 QD per os, week 7): −38.23
- Relative change (% from baseline) in weekly frequency of moderate to severe VMS, mean (5 mg E4 QD per os, week 7): −57%
- Mean change from baseline in weekly frequency of moderate to severe VMS (5 mg E4 QD per os, week 8): −38.55
- Relative change (% from baseline) in weekly frequency of moderate to severe VMS, mean (5 mg E4 QD per os, week 8): −57%
- Mean change from baseline in weekly frequency of moderate to severe VMS (5 mg E4 QD per os, week 9): −39.34
- Relative change (% from baseline) in weekly frequency of moderate to severe VMS, mean (5 mg E4 QD per os, week 9): −59%
- Mean change from baseline in weekly frequency of moderate to severe VMS (5 mg E4 QD per os, week 10): −39.83
- Relative change (% from baseline) in weekly frequency of moderate to severe VMS, mean (5 mg E4 QD per os, week 10): −60%
- Mean change from baseline in weekly frequency of moderate to severe VMS (5 mg E4 QD per os, week 11): −41.46
- Relative change (% from baseline) in weekly frequency of moderate to severe VMS, mean (5 mg E4 QD per os, week 11): −63%
- Mean change from baseline in weekly frequency of moderate to severe VMS (5 mg E4 QD per os, week 12): −40.60
- Relative change (% from baseline) in weekly frequency of moderate to severe VMS, mean (5 mg E4 QD per os, week 12): −62%
- Difference with placebo, LS adjusted mean, absolute change in weekly frequency of moderate to severe VMS [1]: 6.359
- Difference with placebo, LS adjusted mean, relative change in weekly frequency of moderate to severe VMS [1]: 0.06833
- Difference with placebo, LS adjusted mean, absolute change in weekly frequency of moderate to severe VMS (week 4, without site effect): 5.781
- Difference with placebo, LS adjusted mean, relative change in weekly frequency of moderate to severe VMS (week 4, without site effect): 0.05854
- Difference with placebo, LS adjusted mean, absolute change in weekly frequency of moderate to severe VMS [2]: 3.054
- Difference with placebo, LS adjusted mean, relative change in weekly frequency of moderate to severe VMS [2]: 0.03978
- Difference with placebo, LS adjusted mean, absolute change in weekly frequency of moderate to severe VMS (week 12, without site effect): 2.918
- Difference with placebo, LS adjusted mean, relative change in weekly frequency of moderate to severe VMS (week 12, without site effect): 0.03671
- LS adjusted mean change from baseline in weekly frequency of moderate to severe VMS [1]: −35.37
- LS adjusted mean relative change (%) from baseline in weekly frequency of moderate to severe VMS [1]: -54.5%
- LS adjusted mean change from baseline in weekly frequency of moderate to severe VMS (week 4, without site effect): −35.87
- LS adjusted mean relative change (%) from baseline in weekly frequency of moderate to severe VMS (week 4, without site effect): -55.5%
- LS adjusted mean change from baseline in weekly frequency of moderate to severe VMS [2]: −45.84
- LS adjusted mean relative change (%) from baseline in weekly frequency of moderate to severe VMS [2]: -70%
- LS adjusted mean change from baseline in weekly frequency of moderate to severe VMS (week 12, without site effect): −46.53
- LS adjusted mean relative change (%) from baseline in weekly frequency of moderate to severe VMS (week 12, without site effect): -71.7%
- Mean change from baseline in weekly frequency of moderate to severe VMS (10 mg E4 QD per os, week 1): −13.37
- Relative change (% from baseline) in weekly frequency of moderate to severe VMS, mean (10 mg E4 QD per os, week 1): −21%
- Mean change from baseline in weekly frequency of moderate to severe VMS (10 mg E4 QD per os, week 2): −23.47
- Relative change (% from baseline) in weekly frequency of moderate to severe VMS, mean (10 mg E4 QD per os, week 2): −37%
- Mean change from baseline in weekly frequency of moderate to severe VMS (10 mg E4 QD per os, week 3): −31.34
- Relative change (% from baseline) in weekly frequency of moderate to severe VMS, mean (10 mg E4 QD per os, week 3): −48%
- Mean change from baseline in weekly frequency of moderate to severe VMS (10 mg E4 QD per os, week 4): −36.38
- Relative change (% from baseline) in weekly frequency of moderate to severe VMS, mean (10 mg E4 QD per os, week 4): −55%
- Mean change from baseline in weekly frequency of moderate to severe VMS (10 mg E4 QD per os, week 5): −39.07
- Relative change (% from baseline) in weekly frequency of moderate to severe VMS, mean (10 mg E4 QD per os, week 5): −60%
- Mean change from baseline in weekly frequency of moderate to severe VMS (10 mg E4 QD per os, week 6): −42.56
- Relative change (% from baseline) in weekly frequency of moderate to severe VMS, mean (10 mg E4 QD per os, week 6): −65%
- Mean change from baseline in weekly frequency of moderate to severe VMS (10 mg E4 QD per os, week 7): −43.30
- Relative change (% from baseline) in weekly frequency of moderate to severe VMS, mean (10 mg E4 QD per os, week 7): −66%
